In US10975056B2 (GlaxoSmithKline Intellectual Property Development Limited, priority 2016, dated 2021):
Values joined by “and” are separate entries in the source; they are usually repeats but may differ in a detail not shown here. Equal entries are not always repeated. Structures can show the parent of a compound that is named as a salt. Where two headings read alike, the source gives them in different places.

Legend:
DNMT1 = DNMT1 (Homo sapiens, UniProt P26358); test: DNMT1 biochemical activity, breaklight assay and/or SPA assay
Sequence of DNMT1 (P26358 whole entry, looked up): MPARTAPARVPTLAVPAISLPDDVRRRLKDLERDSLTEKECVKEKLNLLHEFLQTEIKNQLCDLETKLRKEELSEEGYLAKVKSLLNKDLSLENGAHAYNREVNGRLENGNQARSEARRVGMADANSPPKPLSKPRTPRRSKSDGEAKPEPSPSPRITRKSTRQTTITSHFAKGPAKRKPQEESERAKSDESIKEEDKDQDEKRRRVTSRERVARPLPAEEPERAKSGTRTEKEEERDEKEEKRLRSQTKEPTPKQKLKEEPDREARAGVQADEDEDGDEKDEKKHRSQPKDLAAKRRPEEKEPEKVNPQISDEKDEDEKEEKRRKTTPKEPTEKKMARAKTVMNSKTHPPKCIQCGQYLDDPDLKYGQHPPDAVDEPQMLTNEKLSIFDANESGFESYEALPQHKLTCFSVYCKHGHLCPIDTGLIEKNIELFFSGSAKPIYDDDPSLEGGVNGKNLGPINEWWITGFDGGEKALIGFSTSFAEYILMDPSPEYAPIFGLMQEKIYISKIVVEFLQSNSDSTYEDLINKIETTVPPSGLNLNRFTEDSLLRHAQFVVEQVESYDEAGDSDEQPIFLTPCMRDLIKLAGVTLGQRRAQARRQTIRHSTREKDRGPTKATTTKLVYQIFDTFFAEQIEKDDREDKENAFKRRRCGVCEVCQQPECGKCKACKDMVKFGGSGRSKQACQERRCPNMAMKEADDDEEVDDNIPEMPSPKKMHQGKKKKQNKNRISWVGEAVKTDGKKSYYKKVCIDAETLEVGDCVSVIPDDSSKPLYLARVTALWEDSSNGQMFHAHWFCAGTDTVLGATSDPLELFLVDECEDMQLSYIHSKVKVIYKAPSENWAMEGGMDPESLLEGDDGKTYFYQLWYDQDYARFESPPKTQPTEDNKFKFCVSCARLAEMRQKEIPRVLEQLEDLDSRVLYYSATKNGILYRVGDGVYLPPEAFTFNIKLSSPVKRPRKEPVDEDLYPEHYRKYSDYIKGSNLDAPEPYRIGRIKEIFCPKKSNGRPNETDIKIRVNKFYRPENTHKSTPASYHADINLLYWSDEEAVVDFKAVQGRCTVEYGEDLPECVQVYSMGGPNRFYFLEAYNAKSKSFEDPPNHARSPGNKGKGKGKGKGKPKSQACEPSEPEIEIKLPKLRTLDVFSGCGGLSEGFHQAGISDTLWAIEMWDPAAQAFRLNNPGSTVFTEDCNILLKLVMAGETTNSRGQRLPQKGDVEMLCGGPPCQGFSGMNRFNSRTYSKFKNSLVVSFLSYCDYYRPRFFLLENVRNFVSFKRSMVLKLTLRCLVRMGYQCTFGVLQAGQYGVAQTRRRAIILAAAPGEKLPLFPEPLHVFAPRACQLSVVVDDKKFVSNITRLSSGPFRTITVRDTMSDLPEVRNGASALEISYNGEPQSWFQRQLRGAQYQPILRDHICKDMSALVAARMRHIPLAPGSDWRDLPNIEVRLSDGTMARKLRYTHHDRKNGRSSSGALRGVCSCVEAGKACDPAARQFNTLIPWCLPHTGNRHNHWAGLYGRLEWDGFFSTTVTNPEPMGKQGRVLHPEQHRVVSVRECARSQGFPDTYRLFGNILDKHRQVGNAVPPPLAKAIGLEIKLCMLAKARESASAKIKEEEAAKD

DNMT3B = DNMT3B (Homo sapiens (Human), UniProt Q9UBC3); test: DNMT3B breaklight assay; format: biochemical
[1] = system: erythroid progenitor cells (EPCs); test: Fetal hemoglobin (HbF) ELISA in day 7 erythroid progenitor cells; format: cell-based, human; conditions: Homo sapiens, Erythroid progenitor cell, HbF ELISA, day 7 EPCs, 5 days; read-out: EPC ELISA (pEC50 category) (converted);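 also: for fetal hemoglobin induction normalized to vehicle-treated cells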
Method in brief: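 Day 7 EPCs from human bone marrow CD34+ cells were plated at 1,000 cells/well in media with 3 U/mL rhEPO. They were exposed to a 22-point dilution ([…]) for 5 days at 37 °C. Lysate HbF was measured by sandwich ELISA (OD450) and normalized to DMSO control wells.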

[2] = binned activity in either the breaklight or the SPA assay
[3] = breaklight assay and/or SPA assay, repeated experimental runs
[4] = read-out: DNMT3B Breaklight IC50
[5] = binned activity in either the breaklight or the SPA assay, read-out: DNMT1 BioChemical (pIC50 category) (converted)
[6] = breaklight assay and/or SPA assay, repeated experimental runs, read-out: average pIC50 against DNMT1 (converted)

Compound | DNMT1 BioChemical (pIC50 category) (DNMT1; [2]) | EC50 [1] | other results
CCc1c(C#N)c(SCc2ccc(CNC(C)=O)cc2)nc(N2CCCN(C)CC2)c1C#N [Example 77, N-(4-(((3,5-Dicyano-4-ethyl-6-(4-methyl-1,4-diazepan-1-yl)pyridin-2-yl)thio)methyl)benzyl)acetamide] | D (Category D: ≥6.5) | < 316 nM | average pIC50 against DNMT1 (DNMT1; [3]): > 6.5; IC50 (DNMT3B; [4]): > 250000 nM
CCc1c(C#N)c(SCc2ccc(=O)[nH]c2)nc(N(C)C)c1C#N [Example 74, 2-(Dimethylamino)-4-ethyl-6-(((6-oxo-1,6-dihydropyridin-3-yl)methyl)thio)pyridine-3,5-dicarbonitrile] | – | 1000 to 31600 nM | IC50 (DNMT1; [5]): 1000 to 31600 nM; IC50 (DNMT1; [6]): ≥ 1000 nM; IC50 (DNMT3B; [4]): > 250000 nM
CCc1c(C#N)c(SC(C(N)=O)c2ccccc2)nc(N(C)C)c1C#N (stereo not shown) [Example 3, 2-{[3,5-dicyano-6-(dimethylamino)-4-ethylpyridin-2-yl]sulfanyl}-2-phenylacetamide] | – | 316 to 1000 nM | IC50 (DNMT3B; [4]): > 500000 nM; IC50 (DNMT3B; repeated experimental runs, read-out: average IC50, DNMT3B breaklight assay): > 500000 nM
CCc1c(C#N)c(SCc2ccccc2)nc(N2CCC(N)CC2)c1C#N [Example 81, 2-(4-Aminopiperidin-1-yl)-6-(benzylthio)-4-ethylpyridine-3,5-dicarbonitrile] | – | > 31600 nM | IC50 (DNMT1; [5]): 316 to 1000 nM; IC50 (DNMT1; [6]): ≥ 1000 nM; IC50 (DNMT3B; [4]): > 250000 nM
CCc1c(C#N)c(SCc2ccc(S(N)(=O)=O)cc2)nc(N2CCCN(C)CC2)c1C#N [Example 76, 4-(((3,5-Dicyano-4-ethyl-6-(4-methyl-1,4-diazepan-1-yl)pyridin-2-yl)thio)methyl)benzenesulfonamide] | – | 316 to 1000 nM | IC50 (DNMT3B; [4]): > 250000 nM
CCc1c(C#N)c(SC(C(N)=O)c2ccccc2)nc(N2CCNC(C)CC2)c1C#N (stereo not shown) [Example 67, 2-{[3,5-dicyano-4-ethyl-6-(5-methyl-1,4-diazepan-1-yl)pyridin-2-yl]sulfanyl}-2-phenylacetamide] | D (Category D: ≥6.5) | < 316 nM | –
CCc1c(C#N)c(SC(C(N)=O)c2ccccc2)nc(N2CCC[C@H](NCC(F)F)C2)c1C#N (stereo partly drawn) [Example 690, 2-((3,5-dicyano-6-((S)-3-((2,2-difluoroethyl)amino)piperidin-1-yl)-4-ethylpyridin-2-yl)thio)-2-phenylacetamide] | D (Category D: ≥6.5) | 1000 to 31600 nM | –
COc1c(C#N)c(SC(C(N)=O)c2ccccc2)nc(N(C)C)c1C#N (stereo not shown) [Example 191, 2-((3,5-Dicyano-6-(dimethylamino)-4-methoxypyridin-2-yl)thio)-2-phenylacetamide] | D (Category D: ≥6.5) | 316 to 1000 nM | –
CCc1c(C#N)c(SCc2ccc(CNC(C)=O)cc2)nc(SC(C(N)=O)c2ccccc2)c1C#N (stereo not shown) [Example 336, 2-(6-(4-(Acetamidomethyl)benzylthio)-3,5-dicyano-4-ethylpyridin-2-ylthio)-2-phenylacetamide] | – | 1000 to 31600 nM | IC50 (DNMT1; [5]): 316 to 1000 nM
CCc1c(C#N)c(SC(C(N)=O)c2ccccc2)nc(N2CCN(S(=O)(=O)c3ccccc3)CC2)c1C#N (stereo not shown) [Example 159, 2-((3,5-Dicyano-4-ethyl-6-(4-(phenylsulfonyl)piperazin-1-yl)pyridin-2-yl)thio)-2-phenylacetamide] | – | 316 to 1000 nM | IC50 (DNMT1; [5]): 1000 to 31600 nM
CCc1c(C#N)c(S[C@@H](C(N)=O)c2ccccc2)nc(N2CC[C@@](O)(CO)C2)c1C#N [Example 654, (R)-2-((3,5-dicyano-4-ethyl-6-((S)-3-hydroxy-3-(hydroxymethyl)pyrrolidin-1-yl)pyridin-2-yl)thio)-2-phenylacetamide] | D (Category D: ≥6.5) | 1000 to 31600 nM | –
CCc1c(C#N)c(SC(C(N)=O)c2ccccc2)nc(N(C)CCNCCOC)c1C#N (stereo not shown) [Example 491, 2-((3,5-dicyano-4-ethyl-6-((2-((2-methoxyethyl)amino)ethyl)(methyl)amino)pyridin-2-yl)thio)-2-phenylacetamide] | D (Category D: ≥6.5) | < 316 nM | –
CCc1c(C#N)c(SC(C(N)=O)c2ccccc2)nc(N2CCC(N(C)CCO)CC2)c1C#N (stereo not shown) [Example 443, 2-((3,5-dicyano-4-ethyl-6-(4-((2-hydroxyethyl)(methyl)amino)piperidin-1-yl)pyridin-2-yl)thio)-2-phenylacetamide] | D (Category D: ≥6.5) | < 316 nM | –
CCc1c(C#N)c(SC(C(N)=O)c2ccccc2)nc(N2CCC(NC)CC2)c1C#N (stereo not shown) [Example 547, 2-((3,5-dicyano-4-ethyl-6-(4-(methylamino)piperidin-1-yl)pyridin-2-yl)thio)-2-phenylacetamide] | D (Category D: ≥6.5) | < 316 nM | –
CCc1c(C#N)c(SC(C(N)=O)c2ccccc2)nc(N2CCOC(CN(C)C)C2)c1C#N (stereo not shown) [Example 558, 2-((3,5-dicyano-6-(2-((dimethylamino)methyl)morpholino)-4-ethylpyridin-2-yl)thio)-2-phenylacetamide] | D (Category D: ≥6.5) | < 316 nM | –
CCc1c(C#N)c(SC(C(N)=O)c2ccccc2)nc(N(C)CCN2CC[C@@H](O)C2)c1C#N (stereo partly drawn) [Example 494, 2-(3,5-dicyano-4-ethyl-6-((2-((R)-3-hydroxypyrrolidin-1-yl)ethyl)(methyl)amino)pyridin-2-ylthio)-2-phenylacetamide] | D (Category D: ≥6.5) | < 316 nM | –
CCc1c(Cl)c(SC(C(N)=O)c2ccccc2)nc(N2CCNCC2)c1Cl (stereo not shown) [Example 324, 2-((3,5-Dichloro-4-ethyl-6-(piperazin-1-yl)pyridin-2-yl)thio)-2-phenylacetamide] | – | > 31600 nM | IC50 (DNMT1; DNMT1 BioChemical (pIC50 category), binned activity in either the breaklight or the SPA assay): 316 to 1000 nM; IC50 (DNMT1; average pIC50 against DNMT1, breaklight assay and/or SPA assay, repeated experimental runs): 316 to 1000 nM and 631 nM
CCc1c(C#N)c(SC(C(N)=O)c2ccc(F)cn2)nc(N2CCC(N3CCCC3)CC2)c1C#N (stereo not shown) [Example 211, 2-((3,5-Dicyano-4-ethyl-6-(4-(pyrrolidin-1-yl)piperidin-1-yl)pyridin-2-yl)thio)-2-(5-fluoropyridin-2-yl)acetamide, Formic Acid Salt] | – | < 316 nM | IC50 (DNMT1; [5]): 316 to 1000 nM
CCc1c(C#N)c(SC(C(N)=O)c2ccccc2)nc(N2CC[C@H](ONC(=N)N)C2)c1C#N (stereo partly drawn) [Example 625, 2-((3,5-dicyano-4-ethyl-6-((S)-3-(guanidinooxy)pyrrolidin-1-yl)pyridin-2-yl)thio)-2-phenylacetamide] | D (Category D: ≥6.5) | < 316 nM | –
CCc1c(C#N)c(SC(C(N)=O)c2ccccc2)nc(N2CC(O)C2)c1C#N (stereo not shown) [Example 146, 2-((3,5-Dicyano-4-ethyl-6-(3-hydroxyazetidin-1-yl)pyridin-2-yl)thio)-2-phenylacetamide] | D (Category D: ≥6.5) | 316 to 1000 nM | –
CCc1c(C#N)c(S[C@@H](C(N)=O)c2ccccc2)nc(N2CC[C@](F)(CN)C2)c1C#N [Example 638, (R)-2-((6-((S)-3-(aminomethyl)-3-fluoropyrrolidin-1-yl)-3,5-dicyano-4-ethylpyridin-2-yl)thio)-2-phenylacetamide] | D (Category D: ≥6.5) | 316 to 1000 nM | –
CCc1c(C#N)c(SCc2ccc(N(C)S(C)(=O)=O)cc2)nc(N(C)CCNC2(C)CC2)c1C#N [Example 481, N-(4-(((3,5-dicyano-4-ethyl-6-(methyl(2-((1-methylcyclopropyl)amino)ethyl)amino)pyridin-2-yl)thio)methyl)phenyl)-N-methylmethanesulfonamide] | D (Category D: ≥6.5) | < 316 nM | –
CSc1c(C#N)c(SC(C(N)=O)c2ccccc2)nc(N2CCCN(C)CC2)c1C#N (stereo not shown) [Example 202, 2-((3,5-Dicyano-6-(4-methyl-1,4-diazepan-1-yl)-4-(methylthio)pyridin-2-yl)thio)-2-phenylacetamide] | – | 316 to 1000 nM | IC50 (DNMT1; [5]): 316 to 1000 nM
CCc1c(C#N)c(SC(C(N)=O)c2ccccc2)nc(N(C)CC(=O)N2C[C@@H](CO)[C@H](O)C2)c1C#N (stereo partly shown) [Example 649] | D (Category D: ≥6.5) | 1000 to 31600 nM | average pIC50 against DNMT1 (DNMT1; [3]): > 6.5; IC50 (DNMT1; [6]): 126 nM
CCc1c(C#N)c(SC(C(N)=O)c2ccccc2)nc(N2CCC(C(N)=O)C2)c1C#N (stereo not shown) [Example 388, 1-(6-((2-Amino-2-oxo-1-phenylethyl)thio)-3,5-dicyano-4-ethylpyridin-2-yl)pyrrolidine-3-carboxamide] | – | 1000 to 31600 nM | IC50 (DNMT1; [5]): 316 to 1000 nM
CCc1c(C#N)c(SCc2csc(NC(C)=O)n2)nc(N2CCCN(C)CC2)c1C#N [Example 75, N-(4-(((3,5-Dicyano-4-ethyl-6-(4-methyl-1,4-diazepan-1-yl)pyridin-2-yl)thio)methyl)thiazol-2-yl)acetamide] | – | > 31600 nM | IC50 (DNMT1; [5]): 316 to 1000 nM
CCc1c(C#N)c(SC(C(N)=O)c2ccccc2)nc(N2CCC(CN(C)C)C2)c1C#N (stereo not shown) [Example 512, 2-((3,5-dicyano-6-(3-((dimethylamino)methyl)pyrrolidin-1-yl)-4-ethylpyridin-2-yl)thio)-2-phenylacetamide] | D (Category D: ≥6.5) | < 316 nM | –
